From patent US10827753B2, “Compositions and methods for controlling nematodes” (Monsanto Technology LLC, priority 2007, dated 2020)
Read-outs that look alike come from different tables or passages of the source. Marks after values point to notes of the source that are not given here.

Experiments:
root knot nematode (RKN) = experiment: RKN greenhouse soil assay on cucumber plants; type: in vivo, Meloidogyne incognita
From the text: Cucumber seeds are planted in a sandy soil mixture in two inch square plastic pots. When the cotyledons are fully opened and just as the first leaf begins to emerge, usually 7 days after planting, chemistry for the 7 day treatment is applied. One week later the chemistry for the 0 day treatment is applied. Separate plants are used for each application. The plants are generally in the 1-2 leaf stage now. At least four hours after the chemistry application the pots are inoculated with root knot nematode (RKN) eggs. Plants are rated for galling 14 days after the egg inoculation.
One milligram of chemistry per four pots is equal to one kilogram per hectare of chemical. A standard test uses four replications. For rates above 2 kg/ha, the desired amount of chemical is weighed into a 30 ml vial (example: 8 kg/ha rate=8 mg chemical in 30 ml vial). The chemical is dissolved in 2 ml of appropriate solvent, generally acetone. For rates below 2 kg/ha, 2 milligrams of chemistry is weighed into the vial and dissolved in 2 ml of the solvent. The appropriate amount of chemical concentrate is then pipetted into a separate 30 ml vial and solvent is added to bring the volume to 2 ml (example 0.5 kg/ha=0.5 ml of concentrate+1.5 ml solvent). Each dissolved concentrate is then brought to a total of 20 milliliters using 0.05% Triton X 100 surfactant solution.
Pots to be treated are moist but not saturated. To each of four pots, five milliliters of the appropriate chemical solution is pipetted to the media surface making sure to avoid contact with the base of the plant. Immediately following chemical application, using a mist nozzle, the pot surface is wetted sufficiently to saturate the pot watering in the chemistry. The chemical application is done in the morning.
Nematode eggs, either SCN or RKN, are added to distilled water to create a concentration of 1000 vermiform eggs […]. At least four hours after chemical treatment the eggs are applied to the treated pots plus non-treated check plants. A small hole about 1 cm deep is punched into the pot surface. One milliliter of the nematode egg slurry is pipetted into the hole. Immediately afterwards the hole is gently covered. Watering of the test plants is then restricted to only water as needed to prevent wilt for a period of 24 hours. After the 24 hour restricted watering, normal sub-irrigation watering is done for the duration of the test.

Meloidogyne incognita = experiment: M. incognita miniaturized greenhouse assay on cucumber seedlings (root galling); type: in vivo; set-up: key to 1 ppm gall ratings / 1 ppm gall rating: mean of 3 gall ratings: 0=0-5%, 1=6-20%, 2=21-50%, 3=51-100% root galled; conditions: for 8 ppm gall ratings: average of triplicate gall rating, scale 0-3 (% root mass galled)
Protocol: The test compound is dissolved in an acetone solution and added to water. A sprouted cucumber seedling is placed into a vial with dry sand and the water-chemical solution is added immediately. Twenty four hours later Meloidogyne incognita eggs are added to the vials and 10 to 12 days later the roots are evaluated for nematode galling.
Cucumber seeds are sprouted for 3 days in moist paper towels. Acceptable sprouts should be 3 to 4 cm long with several lateral roots just emerging. Stock solutions of chemistry are prepared in a mixture of acetone and Triton X100 (412 mg in 500 mL) to a final concentration of 5 mg/mL. The chemical stock solution is then added to 10 mL deionized water plus 0.015% Triton X100 and mixed thoroughly. This is enough to test each condition in triplicate. Ten mL dry sand is added to each vial. At this time the solubility of the chemistry is visually determined and recorded as either ppt (large precipitates) or cloudy (fine precipitates). Seedlings are planted by tilting the vial and laying the seedling in the correct orientation so that the cotyledons are just above the sand and then tilting back to cover the radicles with sand. 3.3 ml water/chemical mix is added to each vial and the vials placed in racks under fluorescent light banks. The vials are inoculated two days after planting by adding 500 vermiform M. incognita eggs to each vial in 50 uL of deionized or spring water. The vials are then kept under the fluorescent lamps at ambient room temperature and watered as needed with 1 mL deionized water, usually twice during duration of test. Harvest of the cucumber plants is done 10 to 12 days after inoculation by washing sand off the roots. A root gall rating and visual phytotoxicity rating is assigned using the following scales: Gall rating scale (Gall: % root mass galled): 0=0-5%; 1=6-20%; 2=21-50%; and 3=51-100%. The average of the triplicate gall rating is then calculated: green=0.00-0.33 (no galls); yellow=0.67-1.33 (mild galling); orange=1.67-2.33 (moderate galling); red=2.67-3.00 (severe galling). Visual phytotoxicity scale is also assigned (Vis. tox; visual reduction in root mass compared to the control): rs1=mild stunting; rs2=moderate stunting; rs3=severe stunting.

root knot nematode = experiment: Pre-plant incorporated (PPI) greenhouse test of root knot nematode on cucumber plants; type: in vivo, Meloidogyne incognita; conditions: Meloidogyne incognita, read-out: percent control (galling reduction) relative to the control blank treatment; for pest or weed control at 4000 g/ha: 4 kg/ha rate; for pest or weed control at 8000 g/ha: 8 ka/ha rate; for pest or weed control at 2000 g/ha: 2 kg/ha rate
From the text: The PPI test examines the effect of pre-incorporation of compounds in soil and longer aging to simulate in furrow methods of nematicide application in the field. The PPI test exposes compounds to a higher volume of soil and drying which can result in more severe soil binding. Compounds are also aged for longer periods which can lead to more extensive biotic and abiotic degradation further limiting activity.
The chemically treated soil (sandy soil mix) for all treatment days (e.g., 7 days, 14 days, 21 days) treatments is potted into their appropriate pots. On the same day the 7 day treatment pots are seeded. One week later eggs are applied and 14 days after egg application the test is harvested. The 14 day treatments are planted 7 days after the first planting. The 14 day planting and 7 day inoculation happen on the same day. One week later the 14 day treatments are inoculated with eggs. These are harvested 14 days after the inoculation. The 21 day treatments are planted 14 days after the first planting. The 14 day inoculation and 21 day planting are done on the same day. One week later the 21 day plants are inoculated with eggs. The 7 day treatment is harvested the same day as the 21 day inoculation. Fourteen days after inoculation the 21 day plants are harvested.
For each compound a stock is prepared using 4 mg material in 4 ml of acetone. The soil is mixed by placing 80 ml of field soil and 320 ml of sand in a plastic bag and mixing well. The formulation for treatment is done by adding 2.13 ml (8 kg/ha rate), 1.06 ml (4 kg/ha rate) or 0.53 ml (2 kg/ha rate) to a vial and raising it with 10 ml in 0.05%×100. Soil is then treated by adding the entire 10 ml to the 400 ml of mix in the bag. The treated soil is immediately mixed well in the sealed bag to distribute the compound evenly. Approximately 95 ml is used to fill each 2-inch square pot up to the top with some soil compression and flattening. For each compound and for the control treatments 4 pots are filled. All pots are watered until moist but with no run-out through the bottom.
The PPI test simulates 8, 4 and 2 kg/ha rates incorporated 15 cm deep in the field and is equivalent to the 2, 1 and 0.5 kg/ha drench application rates in the standard 2-inch pot cucumber greenhouse assay.

[1] = Acetone 1 mg/kg, standard 10% acetone in 0.05% Triton X 100 formulation
[2] = Radex 1 mg/kg, emulsifiable concentrate, 6.25% active ingredient by weight
[3] = 168 h, seven day pre-plant incorporated
[4] = fourteen day pre-plant incorporated, test a
[5] = 0 day treatment, 0.25 kg/ha, test a

SMILES | percent control (galling reduction) relative to the appropriate control blank treatment (root knot nematode (RKN); [1]) [%] | percent control (galling reduction) relative to the appropriate control blank treatment (root knot nematode (RKN); [2]) [%] | 1 ppm gall ratings (Meloidogyne incognita; Table 1B test a) | 1 ppm gall ratings (Meloidogyne incognita; Table 1B test b) | 8 ppm gall ratings (Meloidogyne incognita) | pest or weed control at 2000 g/ha (root knot nematode; [4]) [%] | pest or weed control at 4000 g/ha (root knot nematode; [4]) [%] | pest or weed control at 8000 g/ha (root knot nematode; [4]) [%] | further results
Brc1ccc(-c2noc(-c3cccs3)n2)cc1 [compound 1846] | 88 | 86 | 1.33 | 0.67 | 0 (0=0-5%) |  |  |  | 
FC(F)(F)c1ccc(-c2noc(-c3cccs3)n2)cc1 [compound 5213] |  |  |  |  | 0.33 |  |  |  | pest or weed control at 4000 g/ha (root knot nematode; [3]): 85%; pest or weed control at 8000 g/ha (root knot nematode; [3]): 98%
Brc1ccc(-c2noc(-c3ccco3)n2)cc1 [compound 5467] | 73 | 88 | 1.67 | 1.33 | 0 (0=0-5%) | 71 | 76 | 100 | 
Fc1ccc(-c2noc(-c3cccs3)n2)cc1 [compound 5479] | 91 | 96 | 1 (1=6-20%) | 0.67 | 0 (0=0-5%) | 71 | 89 | 100 | 
Clc1ccc(-c2noc(-c3cccs3)n2)cc1 [compound 5527] | 91 | 80 | 1.67 | 1 (1=6-20%) | 0.67 | 57 | 90 | 96 | 
Cc1cc(Br)ccc1-c1noc(-c2ccco2)n1 [compound 5825] | 96 | 96 | 0 (0=0-5%) | 0.33 |  | 69 | 98 | 96 | percent control (galling reduction) relative to the control blank treatment (root knot nematode (RKN); 0 day treatment, 0.05 kg/ha, test a): 53^a percent; percent control (galling reduction) relative to the control blank treatment (root knot nematode (RKN); 0 day treatment, 0.1 kg/ha, test a): 50^a percent; percent control (galling reduction) relative to the control blank treatment (root knot nematode (RKN); [5]): 89%; percent control (galling reduction) relative to the control blank treatment (root knot nematode (RKN); 0 day treatment, 0.25 kg/ha, test b): 84%; percent control (galling reduction) relative to the control blank treatment (root knot nematode (RKN); 0 day treatment, 1 kg/ha, test b): — 94^b percent; percent control (galling reduction) relative to the control blank treatment (root knot nematode (RKN); 7 day treatment, 1 kg/ha, test b): — 97^b percent
Fc1cc(Cl)ccc1-c1noc(-c2cccs2)n1 [compound 5860] |  |  |  |  |  |  |  |  | percent control (galling reduction) relative to the control blank treatment (root knot nematode (RKN); [5]): 47^a percent; percent control (galling reduction) relative to the control blank treatment (root knot nematode (RKN); 0 day treatment, 1 kg/ha, test a): 85^a percent; percent control (galling reduction) relative to the control blank treatment (root knot nematode (RKN); 7 day treatment, 1 kg/ha, test a): 86^a percent
Clc1cc(Br)ccc1-c1nsc(-c2ccco2)n1 [compound 5961] |  |  |  |  |  |  |  |  | percent control (galling reduction) relative to the control blank treatment (root knot nematode (RKN); 0 day treatment, 0.05 kg/ha, test c): — — 73^c percent; percent control (galling reduction) relative to the control blank treatment (root knot nematode (RKN); 0 day treatment, 0.1 kg/ha, test c): — — 88^c percent; percent control (galling reduction) relative to the control blank treatment (root knot nematode (RKN); 0 day treatment, 0.25 kg/ha, test c): — — 81^c percent
